The record followed here is patent EP4620962A1, “PEPTIDE HAVING ACTIVITIES TO PROMOTE HAIR GROWTH AND AMELIORATE DAMAGED HAIR, AND USE THEREOF” (Caregen Co., Ltd., priority 2022, dated 2025).

The test system of test [1] is human hair follicle dermal papilla cells (HFDPCs). Description: Proliferation of hair follicle dermal papilla cells (MTT). It counts as cell-based. The settings on record: 5 µM, or 50 µM, 72 hours, absorbance at 540 nm, FIGS. 1 and 2. As to the method: In this experimental example, effects of a peptide according to an embodiment on proliferation of human hair follicle dermal papilla cells were examined by evaluating a change in viability of the human hair follicle dermal papilla cells (HFDPCs). Specifically, human hair follicle dermal papilla cells were seeded on a 96-well plate at a density of 4×10^3 cells/well, followed by incubation in a mesenchymal stem cell complete medium for 24 hours. Subsequently, the culture medium was replaced with a serum free mesenchymal stem cell complete medium, followed by incubation for 24 hours. Thereafter, a peptide according to an embodiment was aliquoted thereinto at a concentration of […], 5 µM, or 50 µM, followed by incubation for 72 hours at 37 °C. Then, the culture was washed with PBS, and 10 µL of a 5 mg/ml MTT solution was aliquoted into each well. After incubating the culture in a CO2 incubator for 4 hours, the culture medium was removed, and 100 µL of dimethyl sulfoxide (DMSO) was added thereto, followed by stirring for 10 minutes. Thereafter, absorbance was measured at a wavelength of 540 nm by using a spectrophotometer. Meanwhile, a untreated group was used as a control, and a group treated with 1 µM EGF was used as a positive control.

The subject of a further test is ERF and AKT. Description: Western blot of proliferation-related factors (phospho-AKT, phospho-ERK) in hair follicle dermal papilla cells. It counts as cell-based, human. The settings on record: 5 µM, or 50 µM, 24 hours, FIGS. 3 and 4. As to the method: In this experimental example, effects of a peptide according to an embodiment on activation of factors related to proliferation of human hair follicle dermal papilla cells were examined. Specifically, human hair follicle dermal papilla cells were seeded on a 6-well plate at a density of 4×10^5 cells/well, followed by incubation in a mesenchymal stem cell complete medium for 24 hours. Thereafter, a peptide according to an embodiment was aliquoted thereinto at a concentration of […], 5 µM, or 50 µM, followed by incubation for 24 hours at 37 °C. Then, the culture was washed with PBS, and 100 µL of a lysis buffer to prepare a cell lysate. Subsequently, bicinchoninic acid (BCA) was quantified to prepare an equal amount of a protein sample, followed by electrophoresis using a 10 % SDS-PAGE gel. Thereafter, proteins separated by the SDS-PAGE were transferred to a PVDF membrane, and the reaction was blocked using a 5 % skim milk at room temperature for 30 minutes. Then, phospho-AKT and phospho-ERK (cell signaling, USA) antibodies were diluted in a 3 % BSA at 1:1000 and reacted with the blocked PVDF membrane at 4 °C for 16 hours. Subsequently, the reactants were washed with 0.1 % PBS-T (0.1 % Tween-20 in PBS) three times each for 15 minutes and reacted for 1 hour with a secondary antibody diluted with 5 % skim milk at 1:2000. […]

Another test has as its system beta-catenin. Description: Nuclear beta-catenin Western blot in hair follicle dermal papilla cells. It counts as cell-based, human. The settings on record: nuclear proteins, HDAC1 as nuclear marker, FIGS. 5 and 6. As to the method: In this experimental example, effects of a peptide according to an embodiment on proliferation mechanism of human hair follicle dermal papilla cells were examined. Specifically, human hair follicle dermal papilla cells were incubated in the same manner as in Experimental Example 2-2, and treated with a peptide according to an embodiment. Then, nuclear proteins were isolated from the culture by using a nuclear protein extraction kit (Thermo scientific, USA). Subsequently, expression levels of proteins were examined in the same manner as in Experimental Example 2-2 by using beta-catenin (cell signaling, USA) and HDAC1 (santa cruz, USA) antibodies. Meanwhile, a untreated group was used as a control, and a group treated with 10 ng/mL recombinant human Wnt-3a protein (rhWnt-3a, R&D systems (USA, MN)) was used as a positive control.

Test [2] has as its system LEF-1, c-Myc, and cyclin D1. Description: RT-PCR of beta-catenin downstream target genes in hair follicle dermal papilla cells. The format is cell-based, human. The settings on record: RNA level, FIG. 7 (Peptide-1: c-Myc, cyclin D1), FIG. 8 (Peptide-2: LEF-1, c-Myc, cyclin D1). As to the method:
In addition, a change in expression levels of lymphoid enhancer-binding factor-1 (LEF-1), c-Myc, and cyclin D1, which are downstream target genes of activating mechanism of beta-catenin, was examined. To this end, human hair follicle dermal papilla cells were incubated in the same manner in Experimental Example 2-2 and treated with a peptide according to an embodiment. Thereafter, the culture was washed with PBS and treated with 300 µL of easy blue (intron, Korea) to extract RNAs. Then, the extract RNAs were quantified by Nano drop, and cDNA was synthesized by using the RNAs as a template and using a cDNA synthesis kit (enzynomics, Korea). Then, polymerase chain reaction (PCR) was carried out using primers of Table 2 below and a PCR premix (enzynomics, Korea), followed by electrophoresis using a 1.5 % agarose gel, and gene expression was examined in the RNA level by a Bio-Rad gel image system.

The subject of the next test is DKK-1 (Dickkopf-1). Description: DKK-1 expression (Western blot) in DHT-treated hair follicle dermal papilla cells. It counts as cell-based, human. To be noted: dihydrotestosterone (DHT) added; 5 µM, or 50 µM; FIGS. 9 and 10.
The test system of test [3] is Ha3-II, Keratin 5, Keratin 14, and Keratin 19 in human hair outer root sheath cells (HHORSCs). Description: RT-PCR of activators of outer root sheath cells. It counts as cell-based. To be noted: RNA level; 5 µM, or 50 µM, 24 hours; FIGS. 11 and 12. As to the method:
In this experimental example, effects of a peptide according to an embodiment on expression of type I cuticular Ha3-II (Ha3-II), Keratin 5, Keratin 14, and Keratin 19, which are cytokine related to activation of human hair outer root sheath cells (HHORSCs), were examined. Specifically, human hair outer root sheath cells were seeded on a 6-well plate at a density of 4×10^5 cell/well, followed by incubation for 24 hours in a mesenchymal stem cell complete media. Subsequently, the culture medium was replaced with a serum free mesenchymal stem cell complete medium, followed by incubation for 24 hours. Thereafter, a peptide according to an embodiment was aliquoted thereinto at a concentration of […], 5 µM, or 50 µM, followed by incubation for 24 hours at 37 °C. Then, gene expression was examined in the RNA level in the same manner as in Experimental Example 2-3 by using primers of Table 3 below. Meanwhile, a untreated group was used as a control, and a group treated with 50 nM EGF was used as a positive control.

For test [4], the system named is HOXC13, MSX2, and FOXN1 in human hair germinal matrix cells (HHGMCs). Description: RT-PCR of activators of germinal matrix cells. The format is cell-based. To be noted: RNA level; 5 µM, or 50 µM, 24 hours; FIGS. 13 and 14. As to the method: In this experimental example, effects of a peptide according to an embodiment on expression of Homeobox protein Hox-C13 (HOXC13), Msh homeobox 2 (MSX2), and Forkhead box protein N1 (FOXN1), which are transcription factors related to activation of human hair germinal matrix cells ([…]), were examined. Specifically, human hair germinal matrix cells were seeded on a 6-well plate at a density of 4×10^5 cell/well, followed by incubation for 24 hours in a mesenchymal stem cell complete medium. Subsequently, the culture medium was replaced with a serum free mesenchymal stem cell complete medium, followed by incubation for 24 hours. Thereafter, a peptide according to an embodiment was aliquoted thereinto at a concentration of […], 5 μM, or 50 μM, followed by incubation for 24 hours at 37 °C. Then, gene expression was examined in the RNA level in the same manner as in Experimental Example 2-3 by using primers of Table 4 below. Meanwhile, a untreated group was used as a control, and a group treated with 50 nM EGF was used as a positive control.

On to “Arg (R)-Cys (C)-Cys (C)-Gly (G) [Peptide-1]”, for which, in test [1], the “proliferation of dermal papilla cells” value is reported as “promoted”. For the same substance, the “phosphorylation of ERF and AKT” value in the test with ERF and AKT is “induced”. Besides, in the test on beta-catenin, the “migration of beta-catenin from cytoplasm to a nucleus” value was “confirmed”. Moreover, the “expression of LEF-1, c-Myc, and/or cyclin D1” value in test [2] is “increased”. Moreover, the “expression of DKK-1” value in the test on DKK-1 (Dickkopf-1) was “inhibited”. Moreover, the “expression of Ha3-II, Keratin 14, and Keratin 19” value in test [3] is listed as “increased”. In test [4], the “expression of HOXC13, MSX2, and FOXN1” value is on record as “increased”.
